What all share (assay type): physicochemical
Data set [1] is described as follows: Dynamic vapor sorption (DVS). The settings on record: for weight loss in DVS: relative humidity about 0 to 95%. The protocol:
DVS samples are analyzed using a TA Instruments Q5000SA gravimetric water sorption analyzer. The relative humidity is adjusted between about 0-95% and the weight of the sample is continuously monitored and recorded with respect to the relative humidity and time.

Data set [2] is described as follows: Solid-state stability under humidity (storage at high humidity; XRPD after DVS). To be noted: for stability at various humidity levels: XRPD analysis after DVS.
Data set [3] can be described thus: Solid-state stability on drying under vacuum. The protocol:
Form A of the DMF solvate of relugolix is stable, i.e., it is unchanged after prolonged drying (e.g., about 2 days) under vacuum at about 70° C.

On to `CONC(=O)Nc1ccc(-c2sc3c(c2CN(C)C)c(=O)n(-c2ccc(OC)nn2)c(=O)n3Cc2c(F)cccc2F)cc1` [Form A of anhydrous relugolix, 1-[4-[1-[(2,6-difluorophenyl)-methyl]-5-[(dimethylamino)methyl]-3-(6-methoxypyridazin-3-yl)-2,4-dioxothieno-[2,3-d]pyrimidin-6-yl]phenyl]-3-methoxyurea], for which, in data set [1], the “weight loss in DVS” value was “about 2%”. In addition, the “stability at various humidity levels” value in data set [2] is on record as “remains stable”. The “XRPD changes after drying” value in data set [3] (about 18 hours at about 30° C. under vacuum) is “no changes”.

As for `CONC(=O)Nc1ccc(-c2sc3c(c2CN(C)C)c(=O)n(-c2ccc(OC)nn2)c(=O)n3Cc2c(F)cccc2F)cc1` [Form A of the DMF solvate of relugolix, 1-[4-[1-[(2,6-difluorophenyl)-methyl]-5-[(dimethylamino)methyl]-3-(6-methoxypyridazin-3-yl)-2,4-dioxothieno-[2,3-d]pyrimidin-6-yl]phenyl]-3-methoxyurea], the “loss of mass in DVS” value in data set [1] (at about 90% RH) is recorded as “about 1%”. Besides, in data set [2] (about 97% humidity, ambient temperatures, over a month), the stability under humidity entry is reported as “remains unchanged”. In addition, in data set [3] (about 2 days under vacuum at about 70° C.), the “stability after prolonged drying” value is reported as “unchanged”.

Regarding `CONC(=O)Nc1ccc(-c2sc3c(c2CN(C)C)c(=O)n(-c2ccc(OC)nn2)c(=O)n3Cc2c(F)cccc2F)cc1` [Form B of anhydrous relugolix, 1-[4-[1-[(2,6-difluorophenyl)-methyl]-5-[(dimethylamino)methyl]-3-(6-methoxypyridazin-3-yl)-2,4-dioxothieno-[2,3-d]pyrimidin-6-yl]phenyl]-3-methoxyurea], the “weight loss in DVS” value in data set [1] is recorded as “about 7%”. Besides, in data set [2], the “stability at various humidity levels” value is reported as “remains stable”.

As for `CONC(=O)Nc1ccc(-c2sc3c(c2CN(C)C)c(=O)n(-c2ccc(OC)nn2)c(=O)n3Cc2c(F)cccc2F)cc1` [Form C of anhydrous relugolix, 1-[4-[1-[(2,6-difluorophenyl)-methyl]-5-[(dimethylamino)methyl]-3-(6-methoxypyridazin-3-yl)-2,4-dioxothieno-[2,3-d]pyrimidin-6-yl]phenyl]-3-methoxyurea], in data set [1] (relative humidity about 0 to about 95%), the “water absorption in DVS (and secretion of it all)” value is given as ~2%. For the same molecule, the “stability at various humidity levels” value in data set [2] is “remains stable”.

(Values after US20230374030A1, “SOLID-STATE FORMS OF RELUGOLIX” (MACFARLAN SMITH LIMITED, priority 2019, published 2023).)
